From PubChem BioAssay AID2060502 (Molecular Pharmacology Branch, DTP, NCI, 2025)
Values belong to the compound of their own block, whether it stands above or below them.

System: 885724-159-R-J1-PDC complex spheroid viability
Assay: Anticancer human tumor 885724-159-R-J1-PDC patient-derived pancreatic adenocarcinoma cell line growth inhibition [GQUAD]
Conditions: for IC50: curve of first compound; for viability, T/C: stronger effect = lower value
Description: DNA G-quadruplex Stabilizer Agents in Combinations in Complex Spheroids
A high-throughput screen of multi-cell type tumor spheroids was designed to identify active combinations of DNA G-quadruplex stabilizer agents and targeted small molecules. Complex spheroids include a stromal component modeled by human endothelial cells (HUVEC) and fibroblasts modeled by human mesenchymal stem cells (MSCs). The concentration ranges selected for each drug and investigational agent were based upon clinically achievable concentrations if the clinical Cmax of the agent was known.
Compounds. The drugs and investigational agents: pidnarulex (CX-5461; NSC782164), APTO-253 (NSC789042), BRACO-19 (NSC847499), peposertib (NSC802822), ceralasertib (NSC780249), elimusertib (NSC800525), camonsertib (NSC841442), AZD-1390 (NSC803789), olaparib (NSC753686), talazoparib (NSC767125), ART-558 (NSC835418), sotorasib (NSC818433), MRTX-1133 (NSC836407), SN-38 (NSC673596), topotecan (NSC609699), etoposide (NSC141540), doxorubicin (NSC123127), gemcitabine (NSC613327), 5-fluorouracil (NSC19893), paclitaxel (NSC125973), vemurafenib (NSC761431), panobinostat (NSC761190), R-306465 (JNJ-16241199; NSC773264), adavosertib (NSC754352), TP-3654 (NSC805149), carboplatin (NSC241240), KSQ-4279 (NSC840948), and staurosporine (NSC755774) were obtained from the National Cancer Institute (NCI) Developmental Therapeutics Program Chemical Repository (34). The FDA-approved anticancer drug set is available from the NCI Developmental Therapeutics Program. […] The stock solutions were prepared in dimethyl sulfoxide (DMSO, Sigma-Aldrich, St. Louis, MO, cat. D2650) at 800-fold the tested concentration and stored at -70 degrees C prior to their use. All drugs and investigational agents were tested over a range starting from a high concentration at or near the clinical Cmax and decreasing in half-log increments. If the clinical Cmax for an agent had not been determined, the highest concentration tested was 10 microM.
2.3 Cell Culture. All cells were maintained in an incubator at 37 degrees C and 5% CO2 with 95% humidity. The PDC lines were cultured according to standard operating procedures established by the NCI PDMR. All PDCs were thawed and cultured in Matrigel-coated flasks prepared with a working solution of 1X Ham's F-12 nutrient mix, without supplementation (Invitrogen, cat. 11765054), 100 U/mL penicillin-streptomycin (Invitrogen, cat. 15140122), and 2.5% Matrigel (Corning Inc., cat. 354248) for the first three passages. The 857933-349-R-J2-PDC line was cultured in 6C/Colon 1B media, which includes advanced DMEM/F-12 (Thermo Fisher Scientific, cat. 12634028), 10 mM HEPES (Thermo Fisher Scientific, cat. 15630080), 1X GlutaMAX supplement (Thermo Fisher Scientific, cat. 35050061), 0.1 mg/mL primocin (InvivoGen, cat. ant-pm-2), 10% defined fetal bovine serum, heat inactivated (HyClone Laboratories Inc., cat. SH30070.03HI), 50% L-WRN conditioned media (ATCC, cat. CRL-3276), 1.25 mM N-Acetyl-L-cysteine (Sigma-Aldrich, cat. A9165), 10 mM nicotinamide (Sigma-Aldrich, cat. N0636), 1X B-27 supplement (Thermo Fisher Scientific, cat. 17504044), 1X N-2 supplement (Thermo Fisher Scientific, cat. 17502048), 10 microM Y-27632 dihydrochloride (Tocris Bioscience, cat. 1254), and 50 ng/mL human EGF recombinant protein (Thermo Fisher Scientific, cat. PHG0311). The 485176-168-R4-J1-PDC line was cultured in Panc media, which includes all 6C/Colon 1B media components plus 100 ng/mL human FGF-10 (Thermo Fisher Scientific, cat. 100-26), 500 nM SB-431542 (Selleckchem, cat. S1067), and gastrin (Tocris, cat. 3006).
[…]

[1] = second compound 0.0316 µM, first compound 0.0316 µM
[2] = second compound 0.0316 µM, first compound 0.1 µM
[3] = second compound 0.0316 µM, first compound 0.316 µM
[4] = second compound 0.0316 µM, first compound 1 µM
[5] = second compound 0.0316 µM, first compound 3.16 µM
[6] = second compound 0.0316 µM, first compound 10 µM
[7] = second compound 0.1 µM, first compound 0.0316 µM
[8] = second compound 0.1 µM, first compound 0.1 µM
[9] = second compound 0.1 µM, first compound 0.316 µM
[10] = second compound 0.1 µM, first compound 1 µM
[11] = second compound 0.1 µM, first compound 3.16 µM
[12] = second compound 0.1 µM, first compound 10 µM
[13] = second compound 0.316 µM, first compound 0.0316 µM
[14] = second compound 0.316 µM, first compound 0.1 µM
[15] = second compound 0.316 µM, first compound 0.316 µM
[16] = second compound 0.316 µM, first compound 1 µM
[17] = second compound 0.316 µM, first compound 3.16 µM
[18] = second compound 0.316 µM, first compound 10 µM
[19] = second compound 1 µM, first compound 0.0316 µM
[20] = second compound 1 µM, first compound 0.1 µM
[21] = second compound 1 µM, first compound 0.316 µM
[22] = second compound 1 µM, first compound 1 µM
[23] = second compound 1 µM, first compound 3.16 µM
[24] = second compound 1 µM, first compound 10 µM
[25] = second compound 3.16 µM, first compound 0.0316 µM
[26] = second compound 3.16 µM, first compound 0.1 µM
[27] = second compound 3.16 µM, first compound 0.316 µM
[28] = second compound 3.16 µM, first compound 1 µM
[29] = second compound 3.16 µM, first compound 3.16 µM
[30] = second compound 3.16 µM, first compound 10 µM
[31] = second compound 10 µM, first compound 0.0316 µM
[32] = second compound 10 µM, first compound 0.1 µM
[33] = second compound 10 µM, first compound 0.316 µM
[34] = second compound 10 µM, first compound 1 µM
[35] = second compound 10 µM, first compound 3.16 µM
[36] = second compound 10 µM, first compound 10 µM
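Also: spheroids exposed to agents for seven days before readout.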
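For viability, T/C in this document: percent of vehicle control viability where 100% = DMSO wells.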

- IC50 (second compound 0.0316 µM): > 10 µM
- IC50 (second compound 0.1 µM): > 10 µM
- IC50 (second compound 0.316 µM): > 10 µM
- IC50 (second compound 1 µM): > 10 µM
- IC50 (second compound 3.16 µM): > 10 µM
- IC50 (second compound 10 µM): > 10 µM
Structure (SMILES): CCCS(=O)(=O)Nc1ccc(F)c(C(=O)c2c[nH]c3ncc(-c4ccc(Cl)cc4)cc23)c1F + Cc1cnc(CNC(=O)c2c(=O)c3ccc(N4CCCN(C)CC4)nc3n3c2sc2ccccc23)cn1
- viability, T/C [1]: 95%
- viability, T/C [2]: 106%
- viability, T/C [3]: 113%
- viability, T/C [4]: 141%
- viability, T/C [5]: 126%
- viability, T/C [6]: 74%
- viability, T/C [7]: 124%
- viability, T/C [8]: 128%
- viability, T/C [9]: 116%
- viability, T/C [10]: 135%
- viability, T/C [11]: 128%
- viability, T/C [12]: 83%
- viability, T/C [13]: 94%
- viability, T/C [14]: 103%
- viability, T/C [15]: 96.3%
- viability, T/C [16]: 98%
- viability, T/C [17]: 102%
- viability, T/C [18]: 72.2%
- viability, T/C [19]: 97.6%
- viability, T/C [20]: 84.6%
- viability, T/C [21]: 96%
- viability, T/C [22]: 96.7%
- viability, T/C [23]: 115%
- viability, T/C [24]: 70.6%
- viability, T/C [25]: 76.7%
- viability, T/C [26]: 75.2%
- viability, T/C [27]: 78.8%
- viability, T/C [28]: 80.3%
- viability, T/C [29]: 91.6%
- viability, T/C [30]: 58.7%
- viability, T/C [31]: 62.8%
- viability, T/C [32]: 71.2%
- viability, T/C [33]: 61.1%
- viability, T/C [34]: 73.4%
- viability, T/C [35]: 76%
- viability, T/C [36]: 50.2%

- IC50 (second compound 0.0316 µM): 2.66 µM
- IC50 (second compound 0.1 µM): 5.19 µM
- IC50 (second compound 0.316 µM): 4.11 µM
- IC50 (second compound 1 µM): 1.59 µM
- IC50 (second compound 3.16 µM): 0.609 µM
- IC50 (second compound 10 µM): 0.728 µM
Structure (SMILES): CC1COCCN1c1cc(-c2ccnn2C)c2ccnc(-c3ccn[nH]3)c2n1 (centres undefined) + Cc1cnc(CNC(=O)c2c(=O)c3ccc(N4CCCN(C)CC4)nc3n3c2sc2ccccc23)cn1
- viability, T/C [1]: 86.4%
- viability, T/C [2]: 81.4%
- viability, T/C [3]: 76.3%
- viability, T/C [4]: 54.9%
- viability, T/C [5]: 52.8%
- viability, T/C [6]: 38.5%
- viability, T/C [7]: 99.4%
- viability, T/C [8]: 81.1%
- viability, T/C [9]: 82.4%
- viability, T/C [10]: 73.5%
- viability, T/C [11]: 54%
- viability, T/C [12]: 41.3%
- viability, T/C [13]: 94.2%
- viability, T/C [14]: 90.3%
- viability, T/C [15]: 72.9%
- viability, T/C [16]: 62.2%
- viability, T/C [17]: 55.2%
- viability, T/C [18]: 41.3%
- viability, T/C [19]: 82.4%
- viability, T/C [20]: 74.1%
- viability, T/C [21]: 69.3%
- viability, T/C [22]: 57.2%
- viability, T/C [23]: 39.8%
- viability, T/C [24]: 33.9%
- viability, T/C [25]: 64.8%
- viability, T/C [26]: 65.7%
- viability, T/C [27]: 58.4%
- viability, T/C [28]: 42.7%
- viability, T/C [29]: 37.3%
- viability, T/C [30]: 30.9%
- viability, T/C [31]: 65.1%
- viability, T/C [32]: 61.6%
- viability, T/C [33]: 57.3%
- viability, T/C [34]: 48.2%
- viability, T/C [35]: 30.6%
- viability, T/C [36]: 25.2%
